Measurements from ChEMBL document CHEMBL3301361, “Experimental in vitro DMPK and physicochemical data on a set of publicly disclosed compounds”.

assay: physchem; conditions: octan-1-ol/water, pH 7.4, LogD7.4

| Structure (SMILES) | logD |
| --- | --- |
| c1ccc(-c2n[nH]c(-c3ccncc3)n2)nc1 | 1.48 |
| COc1ccccc1Oc1ccc(N(Cc2cccnc2)S(=O)(=O)CC(F)(F)F)cc1 | 1.5 |
| CC(=O)NC[C@H]1CN(c2ccc(N3CCN(c4cnccn4)CC3)c(F)c2)C(=O)O1 | 1.49 |
| CC(C)N(c1nnc(N)s1)C(C)C | 1.49 |
| c1ccc(CN(Cc2ccccc2)c2nn[nH]n2)cc1 | 1.37 |
| O=S(=O)(Nc1cccnc1)c1ccc2c(c1)OCCO2 | 1.34 |
| CSc1ncccc1C(=O)Nc1nccs1 | 1.43 |
| Cc1ccc(O)c(O)c1 | 1.37 |
| Nc1c(C(=O)NC2CC2)nnc2c(-c3ncccn3)cccc12 | 1.5 |
| Cc1cc(CN2Cc3ccccc3C2C(=O)Nc2ccc(Cl)cc2)ccc1OCC(=O)O (centres undefined) | 1.38 |
| Nc1ncc(-c2ccc(F)cc2)[nH]1 | 1.39 |
| NS(=O)(=O)c1nc2ccccc2s1 | 1.35 |
| COc1ccc(C(CNC(=O)Nc2ccccc2)N2CCN(C)CC2)cc1 (centres undefined) | 1.5 |
| Cc1nsc(C)c1CCC1CCN(S(=O)(=O)CC2(N(O)C=O)CCOCC2)CC1 | 1.5 |
| O=S(=O)(c1ccccc1-c1ccc(CNC2CCOCC2)cc1)N1CCCC1 | 1.4 |
| CCC(c1nc2ccsc2c(=O)n1Cc1ccccc1)N(CC1CCNCC1)C(=O)c1ccc(C)cc1 (centres undefined) | 1.33 |
| CCC(c1nc2ccsc2c(=O)n1Cc1ccccc1)N(CCCN)C(=O)c1ccc(OC)cc1 (centres undefined) | 1.39 |
| CCC(c1nc2ccoc2c(=O)n1Cc1ccccc1)N(CCCN)C(=O)c1ccc(C)cc1 (centres undefined) | 1.37 |
| NC(=O)c1ccc(=O)n(Cc2ccc(F)c(F)c2)c1 | 1.37 |
| OC1(c2ccccc2)CNCCc2ccccc21 (centres undefined) | 1.38 |
| C[C@H]1O[C@@H](n2cnc3c(N)nc(OCC4CC(F)(F)C4(F)F)nc32)[C@H](O)[C@@H]1O (some centres undefined) | 1.42 |
| CN[C@@H](C)C(=O)N[C@H](C(=O)N[C@H]1CCCN(CCc2cccc(OC)c2)C1)C(C)(C)C | 1.47 |

| Structure (SMILES) | logD |
| --- | --- |
| CN[C@@H](C)C(=O)N[C@H](C(=O)N[C@H]1CCCN(CCc2ccc(OC)cc2)C1)C(C)(C)C | 1.45 |
| COc1ccc(-c2nc3c(NCC4CCNCC4)c(Br)cnc3[nH]2)cc1 | 1.36 |
| O=C(O)Cc1ccc(-c2ccc(NC(=O)c3nnc(Nc4ccccc4F)o3)cc2)cc1 | 1.5 |
| NC(=O)Nc1cc(-c2cccc(F)c2F)sc1C(=O)N[C@H]1CCCNC1 | 1.32 |
| CCCSc1nc(N2CCCCC2C(=O)O)ccc1C(=O)NC1CCCCC1 (centres undefined) | 1.36 |
| Cc1nc(C)c(-c2ccc3c(c2)CC[C@]32CC[C@@H](c3nnn[nH]3)CC2)nc1C(N)=O | 1.4 |
| Cc1nc(C)c(-c2ccc([C@H]3CC[C@H](CC(=O)O)CC3)c(F)c2)nc1C(N)=O | 1.3 |
| CN(C)CCCC(NC(=O)C1(N)CCN(c2ncnc3[nH]ccc23)CC1)c1ccc(Cl)cc1 (centres undefined) | 1.4 |
| CN(C)CCNCc1ccc(Nc2ncc3cc(-c4ccncc4)ccc3n2)cc1 | 1.4 |
| NC1=NC(c2ccc(Cl)c(Cl)c2)CC(=O)N1 (centres undefined) | 1.46 |
| O=[N+]([O-])c1ccc(C=NO)o1 | 1.31 |
| Cc1ccc(C(=O)N(CCCN)Cc2nc3cc(Cl)ccc3c(=O)n2Cc2ccccc2)cc1 | 1.47 |
| CC(C)C(NC(=O)Cn1c(-c2cc(F)cc(F)c2)ncc(N)c1=O)C(=O)C(F)(F)F (centres undefined) | 1.38 |
| O=C(NCCCN1CCCCC1)C(c1ccccc1)c1ccccc1 | 1.33 |
| C[C@@H]1CN(C(=O)[C@@](C)(O)C(F)(F)F)[C@@H](C)CN1C(=O)c1ccc(C#N)cc1 | 1.5 |
| CN(C)CC(O)COc1ccc(Nc2cc(Nc3ccc(F)cc3F)ncn2)cc1 (centres undefined) | 1.48 |
| CC(C)C(NC(=O)Cn1c(-c2ccccc2)ccc(NC(=O)NCc2ccc[n+]([O-])c2)c1=O)C(=O)C(F)(F)F (centres undefined) | 1.48 |
| O=C(Nc1ccc(O)cc1)c1ccc(O)cc1 | 1.5 |
| CC(=O)NC[C@H]1CN(c2ccc(-n3cnc(C#N)c3)c(F)c2)C(=O)O1 | 1.51 |
| Cc1cc(N)c2cc(NC(=O)CCC(=O)Nc3ccc4nc(C)cc(N)c4c3)ccc2n1 | 1.39 |
| CNC[C@H](O)c1ccc(Cl)c(C(=O)NCC23CC4CC(CC(C4)C2)C3)c1 | 1.41 |
| Nc1ccc2ncccc2c1 | 1.33 |
